Data reported in US7387779B2, “Anti-angiogenic proteins and fragments and methods of use thereof” (Beth Israel Deaconess Medical Center, priority 1998, dated 2008).

B1: Tum-3: residues 133 to 244 of Tumstatin (SEQ ID NO:24) (protein)
chain: AVHSQTTDIPPCPHGWISLWKGFSFIMFTSAGSEGTGQALASPGSCLEEFRASPFLECHGRGTCNYYSNSYSFWLASLNPERMFRKPIPSTVKAGELEKIISRCQVCMKKRH
modifications: Tum-3 (amino acids 133-244 of SEQ ID NO10)

Assays:
[1] = system: Caspase-3 in C-PAE cells; assay: Caspase-3 assay; type: cell-based, bovine
Description: Tumstatin also altered cell morphology of C-PAE cells as monitored by phase contrast microscopy. After treating cells with 20 μg/ml of Tumstatin in the presence of 10% FCS for 24 hours on fibronectin-coated plates, the typical morphological features of apoptotic cells, membrane blebbing, cytoplasmic shrinkage, and chromatin condensation could be observed. […] Caspase-3 assay: Caspase-3 (CPP32) is an intracellular protease activated at the early stage of apoptosis, and initiates cellular breakdown by degrading structural and DNA repair proteins (Casciola-Rosen, L. et al., 1996, J. Exp. Med. 183:1957-64; Salvesen, G. S. et al., 1997, Cell 91:443-46). The protease activity of Caspase-3 was measured spectrophotometrically by detection of the chromophore (p-nitroanilide) cleaved from the labeled substrate (DEVD-pNA). C-PAE cells or PC-3 cells (0.5×10^6 per well) were plated onto a 6-well plate precoated with fibronectin (10 μg/ml) in DMEM supplemented with 10% FCS, and incubated overnight. The next day, the medium was replaced with DMEM containing 2% FCS and then incubated overnight at 37° C. Then cells were then stimulated with bFGF (3 ng/ml) in DMEM supplemented with 2% FCS, and also containing either TNF-α (80 ng/ml, positive control) or Tumstatin (10 μg/ml), and incubated for 24 hours. Controls received PBS buffer. After 24 hours, the supernatant cells were collected, and attached cells were trypsinized and combined with the supernatant cells. Cells were counted and resuspended in cell lysis buffer (Clontech) at a concentration of 4×10^7 cells/ml. The rest of the protocol followed the manufacturer's instructions (Clontech). A specific inhibitor of Caspase-3, DEVD-fmk (Asp-Glu-Val-Asp-fluoromethyl ketone) was used to confirm the specificity of the assay. The absorbance was measured in a microplate reader (Bio-Rad, Hercules, Calif., USA) at 405 nm. The assay was repeated three times for each cell type.
Apoptosis was also evaluated by measuring Caspase-3 activity as described in Example 27, above. The results are shown in FIG. 35, which is a histogram showing Caspase-3 activity as a measure of absorbance at OD405 (y-axis) of C-PAE cells treated (x-axis) with 5 μg/ml Tum-1, Tum-2, Tum-3 or Tum-4, or 80 ng/ml TNF-α or PBS buffer (control).
Caspase-3 activity was also assayed as described above. DEVD-fmk, a specific caspase-3 inhibitor, was used as an internal control to show specificity of Tumstatin-44-131. TNF-α (80 ng/ml) was used as a positive control. The experiments were repeated three times.
The protease activity of Caspase-3 in cells treated with T3 peptide was measured spectrophotometrically by detection of the chromophore (p-nitroanilide) cleaved from the labeled substrate (DEVD-pNA). […] In PC-3 nonendothelial cells, there was no difference in Caspase-3 activity between control treatments and T3 peptide-treated cells.

[2] = system: MDAMB-435 tumor xenografts; assay: MDAMB-435 human breast tumor xenograft (Example 59); type: in vivo, nude NCRNU mice; conditions: 3 weeks; for Final Tumor Weight (V/Vo) ± SEM: control 468.5 ± 48.06
Excerpt: (§1) For tests involving the MDAMB-435 model, female nude NCRNU mice, 5-6 weeks old, weighing approximately 20 grams, were implanted with 2×10^6 MDAMB-435 cells into the subaxillary mammary fat pad. For tests involving the PC3 model, male nude NCRNU mice, 5-6 weeks old, weighing approximately 25 g were implanted with 2×10^6 PC3 cells into the dorsal subcutis. When the tumors were 100 mm^3 (for the MDAMB-435 model), or 60 mm^3 (for the PC3 model), the animals were pair-matched into treatment and control groups.
(§2) Each group contained 6-7 tumored mice, each of which was ear-tagged and followed individually throughout the experiment. Initial doses of peptide or vehicle control were given on the day of pair-matching (Day 0), and were administered daily via intraperitoneal (i.p.) injection at doses indicated. Mice were weighed weekly, and tumor measurements were taken by calipers weekly, starting on Day 0. These tumor measurements were converted to tumor volume by a well-known formula, (V=W^2×L/2) and mean tumor volumes were plotted against time. Mice were euthenized at the end of the treatment period. Upon termination, the mice were weighed, sacrificed and their tumors were excised. The mean tumor weight per group was calculated, and the mean treated tumor volume/control tumor volume×100 was subtracted from 100% to give the tumor growth inhibition (TGI) for each group.

[3] = system: PC3 tumor xenografts; assay: PC3 human prostate tumor xenograft (Example 59); type: in vivo, nude NCRNU mice; conditions: 3 weeks; for Final Tumor Weight (V/Vo) ± SEM: control 1070.0 ± 132.5
Excerpt: as §1, §2

[4] = system: PC3 tumor xenografts; assay: PC3 human prostate tumor xenograft (Example 58); type: in vivo, nude NCRNU mice; conditions: 5.0 mg/kg i.p. daily, 3 weeks
Description: Male nude NCRNU mice, 5-6 weeks old, weighing approximately 25 grams, 6 were implanted with 2×10^6 PC3 cells into the dorsal subcutis. When the tumors were 60 mm^3, the animals were pair-matched into treatment and control groups. Each group contained 6-7 tumored mice, each of which was ear-tagged and followed individually throughout the experiment. Initial doses of peptide or vehicle control were given on the day of pair-matching (Day 0), and were administered via intraperitoneal (i.p.) injection at doses indicated. Mice were weighed weekly, and tumor measurements were taken by calipers weekly. These tumor measurements were converted to tumor volume by a well-known formula, (V=W^2×L/2), and mean tumor volumes were plotted against time. Mice were euthenized at the end of the treatment period. Upon termination, the mice were weighed, sacrificed and their tumors were excised. The mean tumor weight per group was calculated, and the value of mean treated tumor volume or volume ratio/mean control tumor volume or volume ratio×100 was subtracted from 100% to give the tumor growth inhibition (TG1) for each group. All groups received injections I.P. daily, except for two T8-treated groups, which were treated twice per week and once a week, respectively.

[5] = system: C-PAE cells; assay: Endothelial cell proliferation, methylene blue staining; type: cell-based, bovine
Description: A methylene blue staining test was also done. 3,100 cells were added to each well and treated as above, and cells were then counted using the method of Oliver et al. (Oliver, M. H. et al., 1989, J. Cell. Science 92:513-18). All wells were washed one time with […] of 1×PBS and the cells were fixed by adding […] of 10% formalin in neutral-buffered saline (Sigma Chemical Co., St. Louis, Mo., USA) for 30 minutes at room temperature. After formalin removal cells were stained with a solution of 1% methylene blue (Sigma Chemical Co.) in 0.01 M borate buffer (pH 8.5) for 30 minutes at room temperature. After removal of staining solution, the wells were washed 5 times with […] of 0.01 M borate buffer (pH 8.5). Methylene blue was extracted from the cells with […] of 0.1N HCi/ethanol (1:1 mixture) for 1 hour at room temperature. The amount of methylene blue staining was measured on a microplate reader (BioRad, Hercules, Calif., USA) using light absorbance at 655 nm wavelength.
In the methylene-blue staining method, 7000 cells were plated into each well of a 96-well plate, and treated as described above. Cells were then counted using the method of Oliver et al. (1989, J. Cell. Sci. 92:513-8). After 48 hours of treatment, all wells were washed with 100 μl of PBS, and the cells fixed with 10% formalin in neutral-buffered saline (Sigma Chemical Co., St. Louis, Mo., USA). The cells were then stained with 1% methylene blue (Sigma) in 0.01M borate buffer, pH 8.5. Wells were washed with 0.01M borate buffer, and the methylene blue extracted from the cells with 0.1N HCl/ethanol, and the absorbance measured in a microplate reader (Bio-Rad, Hercules, Calif., USA) at 655 nm. Polymyxin B (Sigma) at a final concentration of 5 μg/ml was used to inactivate endotoxin (Liu, S. et al., 1997, Clin. Biochem. 30:455-63).
Proliferation of endothelial cells (C-PAE cells) and WM-164 melanoma cells was assayed by methylene blue staining, as described above in Examples 25 and 34. The results are shown in FIGS. 33A and 33B, which are a pair of graphs showing the effect of increasing concentration (x-axis) of Tumstatin, Tum-1, Tum-2, Tum-3 and Tum-4 on the relative number (y-axis) of C-PAE cells (FIG. 33A) and WM-164 cells (FIG. 33B). […] Tum-4, however, did have anti-proliferative activity in this cell line. […] Only Tum-4 inhibited WM-164 melanoma cells.
For the proliferation assay, Canstatin, Can-1 and Can-2 soluble proteins (0.1-20.0 μg/ml) were added to the growth medium of proliferating C-PAE cells, which were stimulated with 10% FBS in DMEM, in addition to 5 ng/ml bFGF and 3 ng/ml VEGF. The results are shown in FIG. 40, which is a graph showing the effect of increasing concentrations of Canstatin (♦), Can-1 (▪) and Can-2 (▴) (x-axis) on the relative cell number (y-axis) of C-PAE cells. Each concentration of each protein was tested in quadruplicate. Bovine serum albumin (BSA) was used as a control treatment. Polymyxin B was used to control for endotoxin interference, and no differences were found between assays run with and without polymyxin B added to the medium. Cells were allowed to proliferate for 48 hours, and were then fixed, stained and the density read with a Bio-Rad plate reader (Bio-Rad, Hercules, Calif., USA). Canstatin and Can-1 both caused dose-dependent decreases in the percent cell number, and both reduced the number of cells by 80% at concentrations of 5 μg/ml and higher.
An endothelial cell proliferation assay was used to compare the activity of Tumstatin and some of the deletion mutants. Recombinant Tumstatin (28 kDa), Tumstatin-44-131 (12 kDa) and T3 peptide were used in a methylene blue proliferation assay in equimolar concentrations.

Molecule | Final Tumor Weight (V/Vo) ± SEM ([2]; 1.0 mg/kg i.p. daily) | Final Tumor Weight (V/Vo) ± SEM ([2]; 5.0 mg/kg i.p. daily) | % Tumor growth inhibition ([3]; 1.0 mg/kg i.p. daily) | Final Tumor Weight (V/Vo) ± SEM ([3]; 1.0 mg/kg i.p. daily) | % Tumor growth inhibition ([3]; 5.0 mg/kg i.p. daily) | Final Tumor Weight (V/Vo) ± SEM ([3]; 5.0 mg/kg i.p. daily) | % Tumor growth inhibition ([2]; 5.0 mg/kg i.p. daily) | further results
CC(C)[C@H](NC(=O)[C@H](CCC(=O)O)NC(=O)[C@@H](N)CC(=O)O)C(=O)N[C@@H](CC(=O)O)C(=O)CF [DEVD-fmk, Asp-Glu-Val-Asp-fluoromethyl ketone, reference compound] |  |  |  |  |  |  |  | effect of specific Caspase-3 inhibitor on protease activity [1]: decreased the protease activity to baseline
KQRFTTMPFLFDNVNDVDNFASRNDYS (P2 (amino acids 68-94 of SEQ ID NO10; lysine has been substituted for the leucine residue at position 68 of the full-length Tumstatin molecule, and aspartic acid has been substituted for the cysteine residues at positions 79 and 85)) | 344.7 ± 34.20 | 380.5 ± 25.91 | 31.6% | 732.4 ± 85.96 | 15.9% | 899.7 ± 60.25 |  | % Tumor growth inhibition ([2]; 1.0 mg/kg i.p. daily): 26.4%
KQRFTTMPFLFSNVNDVSNFASRNDYS (T8-3 (amino acids 68-94 of SEQ ID NO10; lysine has been substituted for the leucine residue at position 68 of the full-length Tumstatin molecule, and serine has been substituted for the cysteine residues at positions 79 and 85)) | 370.1 ± 68.17 | 272.4 ± 34.86 | 28.5% | 765.1 ± 133.6 | 35.4% | 691.5 ± 130.8 | 41.9% | 
TFNCVKNYQRLDFTSRFVMDSCANFPN (Scrambled peptide SP2) [reference compound] |  | 527.2 ± 57.89 |  |  |  | 931.0 ± 112.3 | no tumor growth inhibition | % Tumor growth inhibition [4]: 18.7%; Final Tumor Weight (V/Vo) ± SEM ([4]; T7 vehicle 5.626 ± 0.38, T8 vehicle 6.278 ± 1.483): 5.097 ± 0.185
B1 |  |  |  |  |  |  |  | effect on Caspase-3 activity ([1]; 5 μg/ml): did not; inhibition of proliferation of C-PAE cells ([5]; 15 μg/ml): did not inhibit; Relative Cell No. (%) C-PAE ([5]; 20% FCS, 15 μg/ml recombinant protein): 94.9 ± 3.1%
